The record followed here is patent publication US8084644B2, “Iminopropene compound and use thereof” (Sumitomo Chemical Company, Limited, priority 2005, dated 2011).

Test system in the first data set: not given
Assay: not given
Details: not given
`CC(C)(C)SC=CC(=Nc1ccccc1)Oc1ccccc1` [(140), Phenyl 3-(1,1-dimethylethylthio)-N-phenylacrylimidate] returned a melting point of 134 to 136 °C.

On to `O=S(=O)(C=CC(=Nc1ccccc1)Oc1ccccc1)c1ccccc1` [(99), Phenyl N-phenyl-3-(phenylsulfonyl)acrylimidate], for which the melting point lay within 110 to 116 °C.

With `C(=CN1CCCCC1)C(=Nc1ccccc1)Oc1ccccc1` [(134), Phenyl N-phenyl-3-(piperidino)acrylimidate], the melting point lay in the range of 127 to 128 °C.

With `CN(C=CC(=Nc1ccccc1)Oc1ccccc1)c1ccccc1` [(132), Phenyl 3-(N′-methyl-N′-phenylamino)-N-phenylacrylimidate], the melting point lay within 130 to 132 °C.

`Cc1cc(C)nc(SC=CC(=Nc2ccccc2)Oc2ccccc2)n1` [(124), Phenyl 3-(4,6-dimethyl-2-pyrimidinylthio)-N-phenylacrylimidate] displayed a melting point of 175 to 178 °C.

Compound `C(=CC(=Nc1ccccc1)OCc1ccccc1)Sc1ccccc1` [(60), Benzyl N-phenyl-3-(phenylthio)acrylimidate] gave a melting point of 77 to 81 °C.

A further data set relates to Spodoptela litura. Kind of data set: Test Example 13: cabbage test on common cutworm. Format: in vivo. The following applies: 50 ppm, fourth-instar, after four days. The method, then:
0.1 ml of the mixture of xylene and N,N-dimethylformamide (xylene:N,N-dimethylformamide=1:1) and 0.04 ml of the mixture of xylene and Sorpol 3005X (TOHO Chemical Industry Co. LTD) (xylene:Sorpol 3005X=1:9) were added to 16 mg of the each test compound. The mixture was diluted with water as that the active ingredient concentration came to prescribed concentration. Furthermore, spreader (Dain: Takeda Pharmaceutical Co. […] The test solution was applied to a cabbage (Brassicae oleracea) in a fifth-leaf stage at a rate 20 ml per pot. After air-drying, ten fourth-instar worm of common cutworm (Spodoptela litura) was placed onto the cabbage, and the cabbage was covered with a cup having holes. After four days, the number of dead worm was examined.
As for `Cc1ccc(SC=CC(=Nc2ccccc2)Sc2ccccc2)cc1` [(130), Phenyl 3-(4-methylphenylthio)-N-(phenyl)thioacrylimidate], the “index number (mortality)” value is given as 3 (mortality 80 to 99%).

The next data set relates to Haemaphysalis longicornis. Nature of the data set: Test Example 11: filter paper bag contact test on ticks. The following applies: 48 h, 0.5 mg test compound on 5 cm×10 cm filter paper, after 2 days. Type of data set: in vivo. The method, then:
0.5 mg of the test compound was dissolved to […]. Onto one side of filter paper having 5 cm×10 cm, the solution was applied uniformly and then air-dried. Thereafter, the filter paper was folded in half and fixed by paper clips at the side to form bag like shape. Ten Haemaphysalis longicornis was put into the bag, and then the bag was closed with a paper clip. After 2 days, the number of dead insects was examined.
As to `Cc1ccc(SC=CC(=Nc2ccccc2)Sc2ccccc2)cc1` [(130), Phenyl 3-(4-methylphenylthio)-N-(phenyl)thioacrylimidate], the mortality at 0.5 mg/filter paper came to 100%.

Consider `CCCSC(C=CSc1ccccc1)=Nc1ccc(C)cc1` [(280), Propyl N-(4-methylphenyl)-3-(phenylthio)thioacrylimidate], for which the mortality at 0.5 mg/filter paper came out at 100%.

Regarding `CCSC(C=CSc1ccccc1)=Nc1ccc(C)cc1` [(266), Ethyl N-(4-methylphenyl)-3-(phenylthio)thioacrylimidate], the mortality at 0.5 mg/filter paper turned out to be 100%.

Regarding `Cc1ccc(N=C(C=CSc2ccc(Cl)cc2)SCC(C)C)cc1` [(435), Isobutyl 3-(4-chlorophenylthio)-N-(4-methylphenyl)thioacrylimidate], the mortality at 0.5 mg/filter paper was determined as 100%.

As for `FC(F)(F)c1ccc(SC=CC(=Nc2ccccc2)Oc2ccccc2)cc1` [(123), Phenyl N-phenyl-3-(4-trifluoromethylphenylthio)acrylimidate], the mortality at 0.5 mg/filter paper turned out to be 100%.

With `CCc1ccc(N=C(C=CSc2ccccc2)Oc2ccccc2)cc1` [(63), Phenyl N-(4-ethylphenyl)-3-(phenylthio)acrylimidate], the mortality at 0.5 mg/filter paper is 100%.

`CCCCSC(C=CSc1ccccc1)=Nc1ccc(C)cc1` [(284), Butyl N-(4-methylphenyl)-3-(phenylthio)thioacrylimidate] showed a mortality at 0.5 mg/filter paper of 100%.

With `Brc1ccc(SC=CC(=Nc2ccccc2)Oc2ccccc2)cc1` [(102), Phenyl 3-(4-bromophenylthio)-N-phenylacrylimidate], the mortality at 0.5 mg/filter paper is 100%.

Consider `Fc1ccc(N=C(C=CSc2ccccc2)Sc2ccc(F)cc2)cc1` [(278), 4-Fluorophenyl N-(4-fluorophenyl)-3-(phenylthio)thioacrylimidate], for which the mortality at 0.5 mg/filter paper amounted to 100%.

Turning to `C#Cc1ccc(N=C(C=COc2ccccc2)Oc2ccccc2)cc1` [(156), Phenyl N-(4-ethynylphenyl)-3-(phenoxy)acrylimidate], the mortality at 0.5 mg/filter paper amounted to 100%.

On to `Cc1ccc(C)c(SC=CC(=Nc2ccccc2)Oc2ccccc2)c1` [(120), Phenyl 3-(2,5-dimethylphenylthio)-N-phenylacrylimidate], for which the mortality at 0.5 mg/filter paper was 100%.

`Fc1ccc(N=C(C=CSc2ccccc2)Oc2ccccc2)cc1` [(50), Phenyl N-(4-fluorophenyl)-3-(phenylthio)acrylimidate] returned a mortality at 0.5 mg/filter paper of 100%.

`Fc1ccccc1N=C(C=CSc1ccccc1)Oc1ccccc1` [(48), Phenyl N-(2-fluorophenyl)-3-(phenylthio)acrylimidate] displayed a mortality at 0.5 mg/filter paper of 100%.

`COc1ccc(SC(C=CSc2ccccc2)=Nc2ccccc2)cc1` [(26), 4-Methoxyphenyl N-phenyl-3-(phenylthio)thioacrylimidate] returned a mortality at 0.5 mg/filter paper of 100%.

For the compound `Cc1cccc(SC=CC(=Nc2ccccc2)Oc2ccccc2)c1` [(106), Phenyl 3-(3-methylphenylthio)-N-phenylacrylimidate], the mortality at 0.5 mg/filter paper stood at 100%.

In the case of `Fc1ccccc1SC=CC(=Nc1ccccc1)Oc1ccccc1` [(104), Phenyl 3-(2-fluorophenylthio)-N-phenylacrylimidate], the mortality at 0.5 mg/filter paper worked out at 100%.

Take `Cc1ccc(N=C(C=CSc2ccccc2)SC2CCCCC2)cc1` [(470), Cyclohexyl N-(4-methylphenyl)-3-(phenylthio)thioacrylimidate]: the mortality at 0.5 mg/filter paper came to 100%.

`Cc1ccc(N=C(C=CSc2cccc(F)c2)SCC(C)C)cc1` [(429), Isobutyl 3-(3-fluorophenylthio)-N-(4-methylphenyl)thioacrylimidate] registered a mortality at 0.5 mg/filter paper of 100%.

Consider `Cc1ccc(N=C(C=CSc2ccccc2)Sc2ccccc2)cc1` [(28), Phenyl N-(4-methylphenyl)-3-phenylthiothioacrylimidate], for which the mortality at 0.5 mg/filter paper is 100%.

In the case of `Fc1ccc(N=C(C=COc2ccccc2)Oc2ccccc2)cc1` [(75), Phenyl N-(4-fluorophenyl)-3-(phenoxy)acrylimidate], the mortality at 0.5 mg/filter paper is 100%.

Compound `Fc1ccc(SC=CC(=Nc2ccccc2)SC2CCCCC2)cc1` [(469), Cyclohexyl 3-(4-fluorophenylthio)-N-(phenyl)thioacrylimidate] registered a mortality at 0.5 mg/filter paper of 100%.

For the compound `Cc1ccc(N=C(C=CSc2ccc(C)cc2)SCC(C)C)cc1` [(443), Isobutyl N-(4-methylphenyl)-3-(4-methylphenylthio)thioacrylimidate], the mortality at 0.5 mg/filter paper is 100%.

Take `Cc1ccc(N=C(C=CSc2ccc(Cl)cc2)SC2CCCCC2)cc1` [(472), Cyclohexyl 3-(4-chlorophenylthio)-N-(4-methylphenyl)thioacrylimidate]: the mortality at 0.5 mg/filter paper was determined as 100%.

Regarding `FC(F)(F)c1cccc(SC=CC(=Nc2ccccc2)Oc2ccccc2)c1` [(111), Phenyl N-phenyl-3-(3-trifluoromethylphenylthio)acrylimidate], the mortality at 0.5 mg/filter paper amounted to 100%.

One may read the melting point as the temperature of the solid-liquid transition. The term mortality denotes the share of the test organisms that died. Low readings indicate a weak lethal effect, high ones a strong lethal effect.
